Reference: patent US20080176952A1, “Management of Ophthalmologic Disorders, Including Macular Degeneration” (priority 2004, published 2008)
Like-named read-outs stand apart in the source and are kept apart here. Each block holds one molecule with its values, some of them ahead of it.

What was measured:
[1] = system: 11-cis-retinol biosynthesis (IMH activity) in retinal pigment epithelial membrane system; test: Effect on 11-cis-retinol biosynthesis (IMH activity) in RPE membranes; type: biochemical, bovine
Description: A control reaction mixture without any inhibitor was also incubated at room temperature for 15 min. At the end of the min incubation, all-trans-retinol [11-12-^3H2] (0.2 μM) was added to the reaction mixtures (100 mM Tris pH 8.0, […] of RPE protein, 0.2% BSA 100 μM of DPPC, 1 mM of DTT and 0.2 μM all-trans-retinol [11-12-^3H2]) and incubated at room temperature for 30 min. At the end of this 30 minutes of incubation, an aliquot of the reactions were quenched to verify the equal addition of all-trans-retinol [11,12-^3H2] and the effect of these inhibitors on LRAT. After this the control reaction mixture was incubated with atRA (60 & 6 μM), 13cRA (60 & 6 μM) or 4-HPR (60 & 6 μM) for 15 min. Now all the reaction mixtures were incubated with 30 μM of apo-rCRALBP (100 mM Tris pH 8.0, 7.7 μg of RPE protein, 0.2% BSA 100 μM of DPPC, 1 mM of DTT 30 μM apo-rCRALBP and 0.2 μM all-trans-retinol [11-12-^3H2]) at 37° C. for 30 minutes. At the end of this incubation period the 200 μL reaction mixture was quenched by the addition of 750 μL ice cold methanol after which 100 μL of 1M sodium chloride solution was added, and 500 μl hexane (containing butylated hydroxy toluene at 1 mg/mL) was added to effect extraction of the retinoids. The retinoids were analyzed as previously described (27). The amount of 11-cis-retinol formed was used as a measurement of IMH activity. All experiments were performed in triplicate and the average values of these measurements were used for analysis.
A control reaction mixture without any inhibitor was also incubated at room temperature for 15 min. At the end of the min incubation, all-trans-retinol [11-12-^3H2] (0.2 μM) was added to the reaction mixtures (100 mM Tris pH 8.0, 76.7 μg of RPE protein, 0.2% BSA 100 μM of DPPC, 1 mM of DTT and 0.2 μM all-trans-retinol [11-12-^3H2]) and incubated at room temperature for 30 min. […] The retinoids were analyzed as previously described (27). […]

RPE65 = target: T1, RPE65 (Bos taurus, UniProt Q28175); test: Fluorescence binding assay of retinoids and analogs to purified RPE65; set-up: species or system bovine
T1 construct: Frozen bovine eyecups devoid of retinas were purchased from W. L. Lawson Co; tissue W. L. Lawson Co; host or cells: bovine eyecups (retinal pigment epithelium)
Description: Purification of mRPE65, sRPE65 and rHRPE65: Purification was performed as described before (Ma et al., 2001). The purities of these proteins were verified by silver staining or Coomassie staining and Western blot (1:4000 primary antibody-1 h at room temperature and 1:4000 secondary antibody-0.5 h at room temperature).
(§1) Fluorescence binding assays: RPE65 in PBS, 1% CHAPS, pH 7.4 was used in the fluorometric titration studies. Protein concentrations were measured by a modified Lowry method (Lowry et al., 1951). All titrations were performed at 25° C. The samples in PBS buffer were excited at 280 nm and the fluorescence was scanned from 300 to 500 nm. Fluorescence measurements, using 450 μL quartz cuvettes with a 0.5 cm path length, were made at 25° C. on a Jobin Yvon Instruments, Fluoromax 2 employing the right-angle detection method.
(§2) The fluorescence of the protein solution was measured after equilibrating it at 25° C. for 10 min. The sample was then titrated with a solution of retinoid dissolved in dimethyl sulfoxide. In each titration, to a 250 μL solution of the protein an equal amount of retinoid, typically 0.2 μL. was added and thoroughly mixed before allowing it to equilibrate for 10 min prior to recording the fluorescence intensity. […] The binding constant (KD) was calculated from the fluorescence intensity by using the following equation (Gollapalli et al., 2003).
where P0=Total protein concentration,
n=number of independent binding sites, R0=Total retixioid concentration at each addition, KD=dissociation constant, Fmax=Fluorescence intensity at saturation, and F0=Initial fluorescence intensity.

sRPE65 = target: T2, sRPE65 (Bos taurus, UniProt Q28175); test: Fluorescence binding of retinoids to purified sRPE65; set-up: species or system bovine; conditions: 0.37 μM sRPE65, phosphate buffered saline pH 7.4, 1% CHAPS
T2 construct: Frozen bovine eyecups devoid of retinas were purchased from W. L. Lawson Co; tissue W. L. Lawson Co; host or cells: bovine eyecups (retinal pigment epithelium)
Description: as §1
as §2, with “The sample was then titrated with a solution of retinoid dissolved in dimethyl sulfoxide.” left out
As mentioned above, membrane associated RPE65 (mRPE65) stereospecifically binds all-trans-retinyl palmitate. In this example, the binding of retinoids to sRPE65 is measured by the fluorescence methodology already described (Gollapalli, D. R., Maiti, P., Rando, R. R. (2003) RPE65 operates in the vertebrate visual cycle by stereospecifically binding all-trans-retinyl esters. Biochemistry 42, 11824-30). […]

mouse RPE65 = test: Constants of affinity (Kds) for mouse RPE65; type: binding; conditions: read-out: Kd (constant of affinity) for mouse RPE65
Description: as §1, §2
The constants of affinity (Kds) of several compounds for mouse RPE65 were determined. […] Thus, the potency of binding is a function of the ester chain length, i.e., the longer the chain length, the stronger the affinity for RPE65 is and the stronger the antagonist is.

tLRAT = target: T3, tLRAT (Homo sapiens, UniProt O95237); test: mRPE65 concentration-dependent esterification of vitamin A by tLRAT; type: biochemical
T3 construct: This form of LRAT has the two N and C-terminal transmembrane domains of LRAT truncated; made in house
T3 sequence (O95237 31-196 limits assumed): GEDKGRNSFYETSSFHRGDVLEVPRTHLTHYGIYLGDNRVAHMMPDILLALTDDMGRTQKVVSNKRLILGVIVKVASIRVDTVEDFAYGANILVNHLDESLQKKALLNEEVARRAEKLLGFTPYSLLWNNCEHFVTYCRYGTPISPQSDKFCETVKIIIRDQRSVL
Description: mRPE65 concentration-dependent esterification of vitamin A: The effect of mRPE65 concentration on the rates of all-trans-retinyl palmitate formation was determined by monitoring the tLRAT catalyzed formation of all-trans-retinyl palmitate from added [11,12-^3H2]-all-trans-retinol and mRPE65. It should be noted that all-trans-retinyl palmitate formed from mRPE65 and vitamin A was identified both by its mass spectroscopic and chromatographic properties. The reaction mixture (volume 0.1 mL) contains 100 mM Tris (pH 8.4), 5 μM of tLRAT 0.3% CHAPS, 1 mM dithiothreitol and 5 μM of all-trans-retinol [11,12-^3H2] and mRPE65 (0, 0.008, 0.02, 0.028, 0.04, 0.052, 0.06 and 0.08 μM) incubated for 10 min at room temperature. After 10 min the reaction was quenched with 500 μL methanol, 100 μL of water and 500 μL of hexane. The amount of all-trans-retinyl palmitate [11,12-^3H2] formed as determined by normal phase-HPLC and was used as a measure of activity. The kinetic parameters KM (Kapp) and N were calculated as described before (Segal 1993). Each experiment was done in triplicate, and the data points used are an average of these three points. […]
In these experiments, pure mRPE65 and vitamin A are incubated with LRAT and the resultant all-trans-retinyl palmitate is isolated by HPLC. […] Under the same conditions, no observable turnover of DPPC is measured (FIG. 11B).

[2] = purified RPE65, PBS, 1% CHAPS, pH 7.4, 25° C., N=4, read-out: average KD for binding to RPE65

T1 sequence (Q28175 whole entry): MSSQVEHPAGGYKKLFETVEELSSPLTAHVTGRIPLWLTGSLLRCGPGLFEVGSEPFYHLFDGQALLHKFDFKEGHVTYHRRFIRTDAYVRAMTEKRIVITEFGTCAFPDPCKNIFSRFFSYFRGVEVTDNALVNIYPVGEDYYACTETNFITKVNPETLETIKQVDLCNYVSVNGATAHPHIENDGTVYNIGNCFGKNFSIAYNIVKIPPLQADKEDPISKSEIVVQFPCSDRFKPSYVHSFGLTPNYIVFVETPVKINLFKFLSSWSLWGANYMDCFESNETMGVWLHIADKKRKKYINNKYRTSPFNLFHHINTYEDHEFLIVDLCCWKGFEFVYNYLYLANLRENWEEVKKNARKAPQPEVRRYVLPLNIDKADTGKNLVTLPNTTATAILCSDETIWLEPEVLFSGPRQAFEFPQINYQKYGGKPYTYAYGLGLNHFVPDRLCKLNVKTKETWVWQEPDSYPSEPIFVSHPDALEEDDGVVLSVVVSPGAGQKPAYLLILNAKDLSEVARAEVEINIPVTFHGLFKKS
T2 sequence (Q28175 whole entry): as above

Molecule: CC1=C(/C=C/C(C)=C/C=C/C(C)=C\C(=O)O)C(C)(C)CCC1 [13-cis-retinoic acid]
inhibition of 11-cis-retinol formation ([1]; membranes pre-incubated with vitamin A before inhibitor, 60 μM, data not shown): not susceptible to inhibition

Kd (RPE65; [2]): ~3550 nM
Molecule: CC1=C(/C=C/C(C)=C/C=C/C(C)=C/C(=O)Nc2ccc(O)cc2)C(C)(C)CCC1 [N-(4-hydroxyphenyl)retinamide, reference compound]
inhibition of 11-cis-retinol formation ([1]; membranes pre-incubated with the inhibitor before vitamin A (FIG. 8)): substantially weaker

Kd (sRPE65): ~65 nM
Molecule: CC1=C(/C=C/C(C)=C/C=C/C(C)=C/CO)C(C)(C)CCC1 [all-trans-retinol, reference compound]

Kd (RPE65; antagonist of RPE65, read-out: KD): 47 nM | Kd (RPE65; [2]): 47 nM | Kd (mouse RPE65): 47 nM | Kd (sRPE65): ~1200 nM
Molecule: CCCCCCCCCCCCCCCC(=O)OC/C=C(C)/C=C/C=C(C)/C=C/C1=C(C)CCCC1(C)C [retinyl palmitate]

N (Hill plot) (tLRAT; tLRAT catalyzed palmitoyl transfer to vitamin A): 2.54
B1: mRPE65: membrane-associated, palmitoylated form of RPE65; acts as palmitoyl donor for LRAT (protein, UniProt Q16518 2-533, looked up)
Retinoid isomerohydrolase: SIQVEHPAGGYKKLFETVEELSSPLTAHVTGRIPLWLTGSLLRCGPGLFEVGSEPFYHLFDGQALLHKFDFKEGHVTYHRRFIRTDAYVRAMTEKRIVITEFGTCAFPDPCKNIFSRFFSYFRGVEVTDNALVNVYPVGEDYYACTETNFITKINPETLETIKQVDLCNYVSVNGATAHPHIENDGTVYNIGNCFGKNFSIAYNIVKIPPLQADKEDPISKSEIVVQFPCSDRFKPSYVHSFGLTPNYIVFVETPVKINLFKFLSSWSLWGANYMDCFESNETMGVWLHIADKKRKKYLNNKYRTSPFNLFHHINTYEDNGFLIVDLCCWKGFEFVYNYLYLANLRENWEEVKKNARKAPQPEVRRYVLPLNIDKADTGKNLVTLPNTTATAILCSDETIWLEPEVLFSGPRQAFEFPQINYQKYCGKPYTYAYGLGLNHFVPDRLCKLNVKTKETWVWQEPDSYPSEPIFVSHPDALEEDDGVVLSVVVSPGAGQKPAYLLILNAKDLSEVARAEVEINIPVTFHGLFKKS
modifications: palmitoylated membrane-associated form
notes: membrane-associated, palmitoylated form of RPE65; acts as palmitoyl donor for LRAT
Km (tLRAT; 5 μM tLRAT, 5 μM all-trans-retinol, sigmoidal kinetics, read-out: KM (Kapp) as palmitoyl donor): 0.03 µM
